The results in this text go back to patent publication US11337964B2, “Isoindoline derivative, pharmaceutical composition and use thereof” (Kangpu Biopharmaceuticals, Ltd., priority 2017, dated 2022).

One data set addresses T1, PDE4A1A (Homo sapiens, UniProt P27815).
T1 construct: purchased BPS 60040
In words: PDE4 activity inhibition assay, PDE4A1A. As to conditions: FAM-cAMP substrate, 30 minutes at room temperature. The class given is biochemical. The procedure: (§1) The IC50 value of the inhibitory effect of the compound on PDE4A1A, PDE4B1 and PDE4D3 was tested.
(§2) Positive compound: Trequinsin (Sigma, Cat. No. T2057).
(§3) Equipment: Wallac Victor Multi-label counter (Perkin Elmer).
(§4) I. Preparing 1× reaction liquid and termination liquid;
(§5) II. PDE enzymatic reaction; • 1) The PDE was dissolved in 1× reaction solution to form 2× enzyme solution. • 2) FAM-cAMP was dissolved in 1× reaction solution to form 2× substrate solution. • 3) Echo 550 was used to transfer the corresponding volume of the compound in DMSO solution to the reaction plate. • 4) 2× enzyme solution was added into the corresponding well of the reaction plate and incubated with the compound solution at room temperature for 15 minutes. • 5) 2× substrate solution was added into the corresponding well of the reaction plate to initiate the reaction. • 6) Reaction plate was incubated at room temperature for 30 minutes and terminated by adding termination liquid, then incubated at room temperature for 60 minutes.
(§6) The inhibition rate was calculated by Excel; IC50 was calculated by GraphPad Prism.

The next data set addresses T2, PDE4B1 (Homo sapiens, UniProt Q07343).
T2 construct: purchased BPS 60041
In words: PDE4 activity inhibition assay, PDE4B1. The class given is biochemical. The conditions noted are these: FAM-cAMP substrate, 30 minutes at room temperature. As to the method:
as §1, §2, §3, §4, §5, §6

In another data set the target is T3, PDE4D3 (Homo sapiens, UniProt Q08499).
T3 construct: purchased BPS 60046
T3 sequence (Q08499 1-673 isoform Q08499-2): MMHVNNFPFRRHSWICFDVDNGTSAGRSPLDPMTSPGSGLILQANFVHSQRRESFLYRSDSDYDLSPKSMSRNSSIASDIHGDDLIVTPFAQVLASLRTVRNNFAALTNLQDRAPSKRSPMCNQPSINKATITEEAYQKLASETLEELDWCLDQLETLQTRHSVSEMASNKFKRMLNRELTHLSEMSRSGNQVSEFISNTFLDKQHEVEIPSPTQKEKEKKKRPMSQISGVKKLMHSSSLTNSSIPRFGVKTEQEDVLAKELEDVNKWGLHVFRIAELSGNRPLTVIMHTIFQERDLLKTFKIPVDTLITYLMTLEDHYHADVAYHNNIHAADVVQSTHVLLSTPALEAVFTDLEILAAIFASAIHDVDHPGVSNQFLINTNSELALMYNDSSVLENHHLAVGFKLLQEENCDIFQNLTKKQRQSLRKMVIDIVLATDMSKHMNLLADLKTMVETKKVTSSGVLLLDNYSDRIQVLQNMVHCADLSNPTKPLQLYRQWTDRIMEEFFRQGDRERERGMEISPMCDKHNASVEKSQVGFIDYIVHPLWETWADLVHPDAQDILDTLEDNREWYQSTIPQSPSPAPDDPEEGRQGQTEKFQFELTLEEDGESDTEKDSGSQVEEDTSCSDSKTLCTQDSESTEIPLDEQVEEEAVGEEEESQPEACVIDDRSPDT
In words: PDE4 activity inhibition assay, PDE4D3. The class given is biochemical. As to conditions: FAM-cAMP substrate, 30 minutes at room temperature. The procedure: as §1, §2, §3, §4, §5, §6

A short description of data set [1]: PK parameter test in SD rats. The conditions noted are these: male SD rats; for Tmax / AUC / half-life: Sprague-Dawley, rat, plasma; for F: po 10 mg/kg vs iv 3 mg/kg. The class given is in vivo, Sprague-Dawley rats. The procedure:
Test compounds were administered intravenously or intragastrically singly to SD rats.
Blood samples were collected at different time points. LC-MS/MS was used to determine the concentration of the test compounds in rat plasma after administration of tested compounds and calculate the relevant PK parameters.
The test compounds are calculated based on free radicals and are converted only by purity.
A suitable amount of the test compound was added 5% DMSO+95% HP-beta-CD (20%) to prepare a solution of 0.6 mg/mL for intravenous administration.
A suitable amount of the test compound was added 5% DMSO+95% HP-beta-CD (20%) to prepare a solution of 1 mg/mL for intragastrical administration.
Male Sprague-Dawley rats were purchased from Shanghai Xipuer-Bikai Laboratory Animal Co., Ltd. There were 3 rats in each group. One group was used as control to collect blank plasma. The other groups were given each test compound by intravenous injection (the dose was 3 mg/kg) or intragastrical administration (the dose was 10 mg/kg). Heparin sodium was used for anticoagulation. Analyze the concentration of the test compound in the blood sample.
Abrosia for 10-14 hours before oral administration of the test compounds and resume feeding 4 hours after oral administration of the test compounds.
The time points of blood sample collection were: intravenous injection: before administration and at 0.083 hour, 0.25 hour, 0.5 hour, 1 hour, 2 hour, 4 hour, 6 hour, 8 hour, 24 hour after administration; oral administration: before administration and at 0.25 hour, 0.5 hour, 1 hour, 2 hour, 4 hour, 6 hour, 8 hour, 24 hour after administration. Blood samples were collected through jugular vein puncture. About 0.25 mL blood was collected for each sample. Heparin sodium was used for anticoagulation and the samples were placed on ice after collection. Blood samples were placed on ice after collection, and plasma was separated by centrifugation (centrifugation condition: 8000 rpm, 6 min, 2-8° C.). The collected plasma was stored at −80° C. before analysis.
50 μL plasma sample was added into a 1.5 mL centrifugal tube, and 250 μL internal standard solution (the same volume of methanol was added to blank sample instead of internal standard) was added to the sample. The sample was mixed in a whirlpool and centrifuged for 5 minutes at 14000 rpm. The supernatant of 200 μL was added to 96-well plate for LC-MS/MS analysis.
The pharmacokinetic parameters of the test compounds were calculated using the non-compartment model of WinNonlin v5.2, a software for pharmacokinetic calculation, based on the data of plasma concentration.

The mark [2] stands for this setting: po, intragastrical administration 10 mg/kg.
[3] abbreviates: po, intragastrical administration 10 mg/kg, read-out: AUC(po).
Where [4] appears, read: po, intragastrical administration 10 mg/kg, read-out: T1/2(po) (converted).
Setting [5] is: intravenous injection 3 mg/kg, read-out: AUC(iv).
The mark [6] stands for this setting: intravenous injection 3 mg/kg, read-out: T1/2 (IV) (converted).

Where two headings read alike, the source gives them in different places.

The IC50 is the concentration that inhibits the measured activity by half. What is called Tmax is the time from dosing to the highest level. What is called AUC is the area under the concentration-time curve, a measure of exposure.

T1 sequence (P27815 1-647 isoform P27815-4): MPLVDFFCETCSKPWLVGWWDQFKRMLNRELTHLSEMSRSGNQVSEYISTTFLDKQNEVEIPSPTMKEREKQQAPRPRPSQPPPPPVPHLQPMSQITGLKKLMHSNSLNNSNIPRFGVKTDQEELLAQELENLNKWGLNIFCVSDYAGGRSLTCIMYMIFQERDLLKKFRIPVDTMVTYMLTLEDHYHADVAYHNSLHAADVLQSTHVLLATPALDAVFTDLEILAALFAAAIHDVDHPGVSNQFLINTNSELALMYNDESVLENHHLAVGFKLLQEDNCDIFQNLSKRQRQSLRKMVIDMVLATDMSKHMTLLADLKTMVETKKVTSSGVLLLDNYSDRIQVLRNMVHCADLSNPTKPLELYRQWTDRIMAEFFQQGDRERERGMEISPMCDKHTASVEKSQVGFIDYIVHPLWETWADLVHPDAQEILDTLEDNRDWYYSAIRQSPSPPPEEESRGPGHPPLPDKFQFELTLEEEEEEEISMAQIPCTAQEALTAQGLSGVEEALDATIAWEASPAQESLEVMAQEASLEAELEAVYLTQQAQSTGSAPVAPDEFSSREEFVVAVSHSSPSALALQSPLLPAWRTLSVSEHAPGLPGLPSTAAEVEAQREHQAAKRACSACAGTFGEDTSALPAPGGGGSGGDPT
T2 sequence (Q07343 whole entry): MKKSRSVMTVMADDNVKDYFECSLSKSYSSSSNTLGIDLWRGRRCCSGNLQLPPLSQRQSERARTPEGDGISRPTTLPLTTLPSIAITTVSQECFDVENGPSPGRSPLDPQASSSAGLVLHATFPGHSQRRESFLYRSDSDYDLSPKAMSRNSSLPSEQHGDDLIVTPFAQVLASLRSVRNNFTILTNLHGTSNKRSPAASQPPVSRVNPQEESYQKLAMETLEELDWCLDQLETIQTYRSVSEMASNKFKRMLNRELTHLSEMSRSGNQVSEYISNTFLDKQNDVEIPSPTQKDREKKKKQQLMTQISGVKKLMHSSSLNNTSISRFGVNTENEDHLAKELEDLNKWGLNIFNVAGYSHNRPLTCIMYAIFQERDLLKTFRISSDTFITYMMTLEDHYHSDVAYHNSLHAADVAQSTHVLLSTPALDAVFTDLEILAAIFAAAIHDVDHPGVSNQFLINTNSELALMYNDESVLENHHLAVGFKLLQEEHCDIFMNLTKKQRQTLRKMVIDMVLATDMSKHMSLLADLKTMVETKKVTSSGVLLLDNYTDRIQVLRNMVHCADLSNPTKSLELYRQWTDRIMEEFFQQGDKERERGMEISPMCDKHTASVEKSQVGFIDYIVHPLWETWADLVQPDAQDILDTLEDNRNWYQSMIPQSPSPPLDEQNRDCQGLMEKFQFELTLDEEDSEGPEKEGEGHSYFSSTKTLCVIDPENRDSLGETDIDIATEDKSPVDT

With `[2H]C([2H])([2H])Oc1ccc([C@@H](CS(C)(=O)=O)N2C(=O)c3c(F)ccc(NC(C)=O)c3C2=O)cc1OCC` [Compound 103, (S)—N-(2-(1-(3-ethoxy-4-d3-methoxyphenyl)-2-(methylsulfonyl)ethyl)-7-fluoro-1,3-dioxoisoindolin-4-yl)acetamide], the IC50 at PDE4A1A came out at 7.25 nM; against PDE4B1, 12.8 nM; against PDE4D3, 3.7 nM. For the same compound, the Tmax in data set [1] (setting [2]) worked out at 120 min. Further, the results for the AUC in data set [1] (setting [3]) and in data set [1] (setting [5]) were 4120 ng·h/mL and 1260 ng·h/mL, respectively. The values for the half-life in data set [1] (setting [4]) and in data set [1] (setting [6]) were 230 min and 63 min, respectively. In data set [1], this compound showed an F of 98.2.
In the case of `[2H]C([2H])([2H])Oc1ccc([C@@H](CS(C)(=O)=O)N2C(=O)c3cc(F)cc(NC(C)=O)c3C2=O)cc1OCC` [Compound 203, (S)—N-(2-(l-(3-ethoxy-4-d3-methoxyphenyl)-2-(methylsulfonyl)ethyl)-6-fluoro-1,3-dioxoisoindolin-4-yl)acetamide], the 50% inhibitory concentration (IC50) against PDE4A1A worked out at 22 nM; on PDE4B1 it was 31 nM; at PDE4D3, 18 nM. For the same compound, in data set [1] (setting [2]), the time of peak concentration (Tmax) is 30 min. Besides, the AUC stood at 250 ng·h/mL in data set [1] (setting [3]) and 1010 ng·h/mL in data set [1] (setting [5]). Further, the figures for the half-life in data set [1] (setting [4]) and in data set [1] (setting [6]) were 52.2 min and 57 min, respectively. This compound also returned a F in data set [1] of 7.4.
Regarding `CCOc1nc(C(CS(C)(=O)=O)N2C(=O)c3c(F)ccc(NC(=O)COC)c3C2=O)ccc1OC` (stereo not drawn) [Compound 745, N-(2-(1-(6-ethoxy-5-methoxypyridin-2-yl)-2-(methylsulfonyl)ethyl)-7-fluoro-1,3-dioxoisoindolin-4-yl)-2-methoxyacetamide], the half-inhibitory concentration (IC50) against PDE4A1A worked out at 1.1 nM; against PDE4B1, 2.6 nM; at PDE4D3 it was 1.2 nM.
In the case of `CCOc1nc(C(CS(C)(=O)=O)N2C(=O)c3cccc(NC(=O)COC)c3C2=O)ccc1OC` (stereo not drawn) [Compound 748, N-(2-(1-(6-ethoxy-5-methoxypyridin-2-yl)-2-(methylsulfonyl)ethyl)-1,3-dioxoisoindolin-4-yl)-2-methoxyacetamide], the half-maximal inhibitory concentration (IC50) against PDE4A1A is 2.8 nM; on PDE4B1, 7.9 nM; on PDE4D3, 3.3 nM.
On to `CCOc1nc(C(CS(C)(=O)=O)N2C(=O)c3c(F)ccc(NC(=O)CN(C)C)c3C2=O)ccc1OC` (stereo not drawn) [Compound 751, 2-(dimethylamino)-N-(2-(1-(6-ethoxy-5-methoxypyridin-2-yl)-2-(methylsulfonyl)ethyl)-7-fluoro-1,3-dioxoisoindolin-4-yl)acetamide], for which the values for the IC50 at PDE4A1A, against PDE4B1 and against PDE4D3 were 5 nM, 9.9 nM and 3.1 nM, respectively.
With `CCOc1nc(C(CS(C)(=O)=O)N2C(=O)c3cccc(NC(=O)CN(C)C)c3C2=O)ccc1OC` (stereo not drawn) [Compound 754, 2-(dimethylamino)-N-(2-(1-(6-ethoxy-5-methoxypyridin-2-yl)-2-(methylsulfonyl)ethyl)-1,3-dioxoisoindolin-4-yl)acetamide], the IC50 was 10.6 nM at PDE4A1A, 21.9 nM on PDE4B1 and 8 nM against PDE4D3.
On the same counts, the results for `CCOc1nc(C(CS(C)(=O)=O)N2C(=O)c3c(F)ccc(NC(=O)CC(C)C)c3C2=O)ccc1OC` (stereo not drawn) [Compound 757, N-(2-(1-(6-ethoxy-5-methoxypyridin-2-yl)-2-(methylsulfonyl)ethyl)-7-fluoro-1,3-dioxoisoindolin-4-yl)-3-methylbutanamide] are 2.5 nM, 4.5 nM and 1.8 nM.
For the compound `CCOc1nc(C(CS(C)(=O)=O)N2C(=O)c3cccc(NC(=O)CC(C)C)c3C2=O)ccc1OC` (stereo not drawn) [Compound 760, N-(2-(1-(6-ethoxy-5-methoxypyridin-2-yl)-2-(methylsulfonyl)ethyl)-1,3-dioxoisoindolin-4-yl)-3-methylbutanamide], the IC50 came to 3.1 nM against PDE4A1A, 4.7 nM against PDE4B1 and 1.3 nM at PDE4D3.
On the same counts, the results for `CCOc1nc([C@@H](CS(C)(=O)=O)N2C(=O)c3c(F)ccc(NC(=O)C4CC4)c3C2=O)ccc1OC` [Compound 764, (S)—N-(2-(1-(6-ethoxy-5-methoxypyridin-2-yl)-2-(methylsulfonyl)ethyl)-7-fluoro-1,3-dioxoisoindolin-4-yl)cyclopropanecarboxamide] are 1.6 nM, 1.9 nM and 1 nM.
On the same counts, the results for `[2H]C([2H])([2H])Oc1ccc([C@@H](CS(C)(=O)=O)N2C(=O)c3c(F)ccc(NC(=O)C4CC4)c3C2=O)nc1OCC` [Compound 767, (S)—N-(2-(1-(6-ethoxy-5-d3-methoxypyridin-2-yl)-2-(methylsulfonyl)ethyl)-7-fluoro-1,3-dioxoisoindolin-4-yl)cyclopropanecarboxamide] are 1.3 nM, 2.2 nM and 1 nM.
On the same counts, the results for `CCOc1nc([C@@H](CS(C)(=O)=O)N2C(=O)c3cccc(NC(=O)C4CC4)c3C2=O)ccc1OC` [Compound 770, (S)—N-(2-(1-(6-ethoxy-5-methoxypyridin-2-yl)-2-(methylsulfonyl)ethyl)-1,3-dioxoisoindolin-4-yl)cyclopropanecarboxamide] are 1.6 nM, 1.8 nM and 1.5 nM.
For the compound `[2H]C([2H])([2H])Oc1ccc([C@@H](CS(C)(=O)=O)N2C(=O)c3cccc(NC(=O)C4CC4)c3C2=O)nc1OCC` [Compound 773, (S)—N-(2-(1-(6-ethoxy-5-d3-methoxypyridin-2-yl)-2-(methylsulfonyl)ethyl)-1,3-dioxoisoindolin-4-yl)cyclopropanecarboxamide], the IC50 was determined as 1.7 nM at PDE4A1A, 1.7 nM against PDE4B1 and 1.2 nM against PDE4D3.
On to `CCOc1cc(C(CS(C)(=O)=O)N2C(=O)c3cccc(NC(C)=O)c3C2=O)cnc1OC` (stereo not drawn) [Compound 801, N-(2-(1-(5-ethoxy-6-methoxypyridin-3-yl)-2-(methylsulfonyl)ethyl)-1,3-dioxoisoindolin-4-yl)acetamide], for which the concentration for half-maximal inhibition (IC50) against PDE4A1A came to 295 nM; against PDE4B1, 364 nM; at PDE4D3, 202 nM.
On the same counts, the results for `CCOc1cc(C(CS(C)(=O)=O)N2C(=O)c3cccc(NC(C)=O)c3C2=O)ncc1OC` (stereo not drawn) [Compound 901, N-(2-(1-(4-ethoxy-5-methoxypyridin-2-yl)-2-(methylsulfonyl)ethyl)-1,3-dioxoisoindolin-4-yl)acetamide] are 411 nM, 484 nM and 248 nM.
With `CCOc1cc([C@@H](CS(C)(=O)=O)N2C(=O)c3cccc(NC(C)=O)c3C2=O)ccc1OC` [Reference compound 2, reference compound], the Tmax in data set [1] (setting [2]) is 60 min. Moreover, the area under the curve (AUC) in data set [1] (setting [3]) came out at 785 ng·h/mL; in data set [1] (setting [5]), 1050 ng·h/mL. The values for the half-life in data set [1] (setting [4]) and in data set [1] (setting [6]) were 56.4 min and 28.2 min, respectively. Besides, the F in data set [1] was found to be 22.5.
